Assay results published in ChEMBL document CHEMBL5465560, “Selectivity Literature for EUbOPEN Chemogenomic Library” (2024).

Tests used:
[1] = molecular target: Serine/threonine-protein kinase 32A (Homo sapiens) (UniProt Q8WU08); experiment: Selectivity interaction (KinomeScan (DiscoverX)) EUB0000618a STK32A; details: at 10 µM
[2] = molecular target: T1, Serine/threonine-protein kinase D2 (Homo sapiens) (UniProt Q9BZL6); experiment: Selectivity interaction (ActivX KiNativ screen (ex vivo kinase selectivity in human PBMCs)) EUB0001619a PRKD2; type: cell-based; details: PBMC, at 1 µM
T1 sequence (whole entry): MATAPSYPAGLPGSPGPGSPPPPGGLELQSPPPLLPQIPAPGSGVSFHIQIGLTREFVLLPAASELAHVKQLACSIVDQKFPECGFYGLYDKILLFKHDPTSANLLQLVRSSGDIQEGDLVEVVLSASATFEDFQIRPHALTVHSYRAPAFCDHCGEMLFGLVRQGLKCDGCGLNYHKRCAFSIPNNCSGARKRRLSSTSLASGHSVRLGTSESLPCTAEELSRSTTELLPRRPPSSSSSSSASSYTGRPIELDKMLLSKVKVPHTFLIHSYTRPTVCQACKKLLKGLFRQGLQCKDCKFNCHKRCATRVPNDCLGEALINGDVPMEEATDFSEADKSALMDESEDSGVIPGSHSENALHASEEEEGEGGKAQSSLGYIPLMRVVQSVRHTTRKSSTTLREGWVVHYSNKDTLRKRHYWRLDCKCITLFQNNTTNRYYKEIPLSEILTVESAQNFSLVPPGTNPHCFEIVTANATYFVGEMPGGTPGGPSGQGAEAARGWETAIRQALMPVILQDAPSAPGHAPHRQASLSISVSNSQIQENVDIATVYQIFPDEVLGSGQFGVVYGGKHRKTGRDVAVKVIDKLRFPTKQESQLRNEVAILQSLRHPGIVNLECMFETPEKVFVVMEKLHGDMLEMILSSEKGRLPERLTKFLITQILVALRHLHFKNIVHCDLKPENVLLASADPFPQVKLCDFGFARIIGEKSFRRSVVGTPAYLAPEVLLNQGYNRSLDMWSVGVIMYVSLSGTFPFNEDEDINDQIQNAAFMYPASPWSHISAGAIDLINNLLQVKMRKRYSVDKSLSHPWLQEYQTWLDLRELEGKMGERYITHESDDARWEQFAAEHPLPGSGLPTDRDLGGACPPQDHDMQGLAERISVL

[3] = molecular target: T2, Serine/threonine-protein kinase 17B (Homo sapiens) (UniProt O94768); experiment: Selectivity interaction (KinomeScan (DiscoverX)) EUB0001619a STK17B; details: at 1 µM
T2 sequence (whole entry): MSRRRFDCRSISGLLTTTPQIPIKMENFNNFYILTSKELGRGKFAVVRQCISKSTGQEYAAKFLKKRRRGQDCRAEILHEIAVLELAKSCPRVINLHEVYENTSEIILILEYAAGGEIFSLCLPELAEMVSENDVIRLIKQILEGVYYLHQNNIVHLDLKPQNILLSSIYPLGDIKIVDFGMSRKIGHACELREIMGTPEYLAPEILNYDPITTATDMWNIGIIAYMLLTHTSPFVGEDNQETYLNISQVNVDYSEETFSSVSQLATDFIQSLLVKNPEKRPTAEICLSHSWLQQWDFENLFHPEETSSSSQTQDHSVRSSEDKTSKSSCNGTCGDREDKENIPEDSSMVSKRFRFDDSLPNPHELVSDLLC

[4] = molecular target: Serine/threonine-protein kinase pim-2 (Homo sapiens, UniProt Q9P1W9); experiment: Selectivity interaction (KinomeScan (DiscoverX)) EUB0000595a PIM2; details: at 10 µM
[5] = molecular target: Platelet-derived growth factor receptor beta (Homo sapiens, UniProt P09619); experiment: Selectivity interaction (ProQinase) EUB0000171b PDGFRB
[6] = molecular target: T3, Serine/threonine-protein kinase DCLK3 (Homo sapiens) (UniProt Q9C098); experiment: Selectivity interaction (KinomeScan (DiscoverX)) EUB0000092b DCLK3; details: at 10 µM
T3 sequence (whole entry): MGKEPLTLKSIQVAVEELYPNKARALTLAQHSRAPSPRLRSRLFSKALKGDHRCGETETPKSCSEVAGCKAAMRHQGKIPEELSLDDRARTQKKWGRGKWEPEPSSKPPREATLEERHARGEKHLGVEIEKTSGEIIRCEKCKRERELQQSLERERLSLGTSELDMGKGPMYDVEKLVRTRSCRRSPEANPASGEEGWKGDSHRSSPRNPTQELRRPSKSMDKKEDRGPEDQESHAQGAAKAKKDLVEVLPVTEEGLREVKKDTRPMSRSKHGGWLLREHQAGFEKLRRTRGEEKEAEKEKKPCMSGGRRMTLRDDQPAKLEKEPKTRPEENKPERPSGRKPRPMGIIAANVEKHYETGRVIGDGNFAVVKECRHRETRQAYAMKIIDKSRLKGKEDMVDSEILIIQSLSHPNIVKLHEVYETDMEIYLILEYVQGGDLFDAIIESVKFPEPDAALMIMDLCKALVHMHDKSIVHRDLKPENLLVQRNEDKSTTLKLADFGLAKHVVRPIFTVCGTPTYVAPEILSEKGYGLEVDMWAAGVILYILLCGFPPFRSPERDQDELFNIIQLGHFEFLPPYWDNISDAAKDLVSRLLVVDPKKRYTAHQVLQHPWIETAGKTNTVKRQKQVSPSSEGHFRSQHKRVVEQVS

[7] = molecular target: T4, Serine/threonine-protein kinase BRSK2 (Homo sapiens) (UniProt Q8IWQ3); experiment: Selectivity interaction (Kinase screening (Nanosyn)) EUB0000604a BRSK2
T4 sequence (whole entry): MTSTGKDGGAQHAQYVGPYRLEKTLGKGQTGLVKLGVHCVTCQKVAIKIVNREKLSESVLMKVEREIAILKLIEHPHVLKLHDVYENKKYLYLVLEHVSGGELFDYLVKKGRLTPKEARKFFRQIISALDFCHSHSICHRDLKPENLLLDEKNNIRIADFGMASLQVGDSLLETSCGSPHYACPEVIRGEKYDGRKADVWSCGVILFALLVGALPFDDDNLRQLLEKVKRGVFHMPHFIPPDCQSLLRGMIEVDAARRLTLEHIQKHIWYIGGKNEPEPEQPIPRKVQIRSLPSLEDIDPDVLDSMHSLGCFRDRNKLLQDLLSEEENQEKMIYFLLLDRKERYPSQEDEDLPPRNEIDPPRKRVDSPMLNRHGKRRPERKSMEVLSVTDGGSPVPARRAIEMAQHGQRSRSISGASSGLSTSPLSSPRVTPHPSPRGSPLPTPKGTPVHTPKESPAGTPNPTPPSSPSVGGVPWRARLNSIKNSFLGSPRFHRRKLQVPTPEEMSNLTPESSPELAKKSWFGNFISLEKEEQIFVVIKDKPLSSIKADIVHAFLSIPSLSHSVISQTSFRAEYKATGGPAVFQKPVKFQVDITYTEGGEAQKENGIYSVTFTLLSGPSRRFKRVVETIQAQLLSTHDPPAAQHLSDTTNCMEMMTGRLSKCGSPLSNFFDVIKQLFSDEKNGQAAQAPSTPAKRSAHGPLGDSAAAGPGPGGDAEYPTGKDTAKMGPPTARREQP

Chain of Platelet-derived growth factor receptor beta (P09619 whole entry): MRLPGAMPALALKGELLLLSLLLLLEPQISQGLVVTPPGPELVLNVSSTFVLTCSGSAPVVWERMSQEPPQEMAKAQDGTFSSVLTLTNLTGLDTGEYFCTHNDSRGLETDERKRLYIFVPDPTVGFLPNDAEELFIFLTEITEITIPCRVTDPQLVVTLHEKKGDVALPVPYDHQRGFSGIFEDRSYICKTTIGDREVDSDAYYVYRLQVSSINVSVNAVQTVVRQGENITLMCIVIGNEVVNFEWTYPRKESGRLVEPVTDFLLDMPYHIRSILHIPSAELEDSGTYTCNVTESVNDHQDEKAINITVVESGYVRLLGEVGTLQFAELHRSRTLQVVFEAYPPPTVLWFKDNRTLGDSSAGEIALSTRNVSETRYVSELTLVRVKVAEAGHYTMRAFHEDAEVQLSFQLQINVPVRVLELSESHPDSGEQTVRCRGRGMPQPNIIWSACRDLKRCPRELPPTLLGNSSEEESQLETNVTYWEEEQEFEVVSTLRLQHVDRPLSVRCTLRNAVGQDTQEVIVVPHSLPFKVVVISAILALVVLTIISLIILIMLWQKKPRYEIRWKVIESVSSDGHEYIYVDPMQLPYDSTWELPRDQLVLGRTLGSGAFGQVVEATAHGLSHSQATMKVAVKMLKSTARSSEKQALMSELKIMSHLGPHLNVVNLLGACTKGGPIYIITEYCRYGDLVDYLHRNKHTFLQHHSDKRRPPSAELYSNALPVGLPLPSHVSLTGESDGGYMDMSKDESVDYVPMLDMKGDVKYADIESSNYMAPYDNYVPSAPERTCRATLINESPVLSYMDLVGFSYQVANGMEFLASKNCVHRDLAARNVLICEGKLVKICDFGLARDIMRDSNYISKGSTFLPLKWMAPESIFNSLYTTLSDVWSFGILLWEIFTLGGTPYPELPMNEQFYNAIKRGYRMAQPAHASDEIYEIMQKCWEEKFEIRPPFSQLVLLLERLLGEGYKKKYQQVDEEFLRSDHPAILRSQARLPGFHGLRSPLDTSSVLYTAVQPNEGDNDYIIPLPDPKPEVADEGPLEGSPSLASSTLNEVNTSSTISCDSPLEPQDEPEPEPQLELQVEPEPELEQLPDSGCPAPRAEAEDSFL
Chain of Serine/threonine-protein kinase 32A (Homo sapiens) (Q8WU08 whole entry): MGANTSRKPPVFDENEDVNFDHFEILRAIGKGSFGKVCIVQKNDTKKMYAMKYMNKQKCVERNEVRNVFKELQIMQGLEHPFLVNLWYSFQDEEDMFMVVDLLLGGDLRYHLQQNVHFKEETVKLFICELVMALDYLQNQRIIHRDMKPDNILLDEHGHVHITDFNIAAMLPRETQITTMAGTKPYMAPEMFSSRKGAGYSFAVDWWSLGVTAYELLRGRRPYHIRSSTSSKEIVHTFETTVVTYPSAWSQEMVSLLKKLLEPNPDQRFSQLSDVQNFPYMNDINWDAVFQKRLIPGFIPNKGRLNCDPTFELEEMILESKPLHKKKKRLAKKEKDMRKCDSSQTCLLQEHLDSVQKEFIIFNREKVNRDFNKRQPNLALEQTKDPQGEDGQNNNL
Chain of Serine/threonine-protein kinase pim-2 (Q9P1W9 whole entry, looked up): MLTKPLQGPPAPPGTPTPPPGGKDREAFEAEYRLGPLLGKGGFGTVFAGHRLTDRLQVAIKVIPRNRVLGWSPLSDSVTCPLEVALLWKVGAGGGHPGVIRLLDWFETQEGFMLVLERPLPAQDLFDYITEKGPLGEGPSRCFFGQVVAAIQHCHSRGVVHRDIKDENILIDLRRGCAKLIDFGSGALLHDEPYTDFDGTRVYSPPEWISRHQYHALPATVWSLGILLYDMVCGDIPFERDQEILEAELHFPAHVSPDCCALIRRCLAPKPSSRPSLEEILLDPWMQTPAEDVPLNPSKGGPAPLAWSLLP

Structure (SMILES): O[C@H]1CC[C@H](Nc2ncc3nc(Nc4c(F)cc(F)cc4F)n([C@H]4CCOC4)c3n2)CC1
- % of control [1]: 62%

Structure (SMILES): N#Cc1cccc(-c2c[nH]c3ncnc(N4CCOCC4)c23)c1
- % of inhibition [2]: 9%
- % of control [3]: 100%

Structure (SMILES): COCC(=O)NC/C=C/c1ccc2ncnc(Nc3ccc(Oc4ccc(C)nc4)c(C)c3)c2c1 [CP-724714]
- % of control [4]: 100%

Structure (SMILES): C=CC(=O)Nc1cccc(C(=O)Nc2ccc(Nc3cc(-c4[nH]c(SC)nc4C)ccn3)cc2)c1
- % of control ([5]; at 1 µM): 74%
- % of control ([5]; at 5 µM): 46%

Structure (SMILES): CCC(=O)N1CCN(c2ccc(-n3c(=O)ccc4cnc5ccc(-c6cnc7ccccc7c6)cc5c43)cc2C(F)(F)F)CC1
- % of control [6]: 97%

Structure (SMILES): Cc1cnc(Nc2ccc(F)cc2Cl)nc1-c1c[nH]c(C(=O)N[C@H](CO)c2cccc(Cl)c2)c1
- % of inhibition [7]: 2%
